Assay results from patent EP3204002B1, “PHARMACEUTICAL COMBINATION FOR THE TREATMENT OF TUMORS” (International Society for Drug Development S.r.l., priority 2014, dated 2016).
Counter-ions that a name gives are not always drawn.

How the values were obtained:
Format in all cases: cell-based, human
U118-MG = assay: cell viability / cytotoxicity by WST-1 colorimetric assay in U118-MG; conditions: alone, 10µM and 100µM
Experimental: (§1) The cell line ANGM-CSS and U118-MG were used, human glioblastoma multiforme (GBM) lines. The ANGM-CSS cell line (ECACC cat n°08040401) was supplied by Dr. Angelo Notarangelo, Laboratorio di Citogenetica, IRCCS Casa Sollievo della Sofferenza, San Giovanni Rotondo (FG), Italy. The U118-MG line was purchased from ATCC, Manassas, VA, USA. The culture medium consisted of DMEM:HAMS F12 (1:1) (Sigma-Aldrich) with the addition of 2mM of L-Glutamine (Sigma Aldrich), 10% Fetal Bovine Serum (FBS, Sigma-Aldrich), 100 units/ml penicillin and 100µg/ml streptomycin (P/S) at 37°C in an atmosphere with 5% CO2.
(§2) The cytotoxicity was evaluated via a colorimetric assay, using WST-1 (4-[3-(4-iodophenyl)-2-(4-nitrophenyl)-2H-5-tetrazolium]-1,3-benzene disulfonate) (Roche, Mannheim, Germany). The inhibition of the cell proliferation is expressed as a percentage of the absorbance at 450nm relative to the non-treated cells in culture. The absorbance was measured by an Enspire microplate reader (PerkinElmer, Wellesley, MA, USA).
(§3) The compound 1 was tested on the two cell lines of human glioblastoma multiforme ANGM-CSS and U118MG, which are resistant to temozolomide.

ANGM-CSS = assay: cell viability / cytotoxicity by WST-1 colorimetric assay in ANGM-CSS; conditions: alone
Experimental: as §1, §2, §3

U87MG cells = assay: cell viability by MTS assay in U87MG cells; conditions: 72 hours
Experimental: The human cells of glioblastoma multiforme U87MG were obtained from the national cancer research institute in Genoa (Italy) and were monitored to determine the DNA profiling. The U87MG cells were cultivated in RPMI medium with the addition of 10% FBS, 2 mM of L-glutamine, 100 U/ml of penicillin, […] of streptomycin and 1% of non-essential amino acids at 37°C in 5% CO2. The cells were used in the successive experiments up to the fourth detaching passage.
The U87MG cells were grown at 37°C in a humid atmosphere in the presence of 5% CO2. and were placed in a plate at a density of 3,000 cells/well. After 24 hours, the culture medium was replaced with fresh culture medium containing different concentrations of the compound 9 solubilized in DMSO. After 72 hours, the cell viability was assayed by means of MTS assay according to the manufacturer's instructions. […] The formazan formed is determined via reading of the absorbance at 490 nm measured with an automated plate reader (Victor Wallac 2, Perkin Elmer). […] The results were calculated by subtracting the mean background value from the values obtained from each evaluation and were expressed as a control percentage (non-treated cells). […] At the end of the treatments, the cell viability was determined by means of MTS assay.

Structure (SMILES) | cell viability (U118-MG) | cell viability (ANGM-CSS; 10µM) | cell viability (ANGM-CSS; 100 µM) | cell viability (U87MG cells; compound alone at 100 nM, 500 nM, 1 µM) | minimal effective concentration (U87MG cells; Homo sapiens, U-87 MG, compound alone, read-out: concentration from which the effect on cell viability is significant) [µM]
COc1cc2c(cc1OC)CN(CC(=O)Nc1ccc3c(c1)/C(=C/c1cccs1)C(=O)N3)CC2 [compound 1, N-[(3Z)-(2-oxo-3-(thiophene-2-ylmethylene)-2,3-dihydro-1H-indol-5-yl]-2-(6,7-dimethoxy-3,4-dihydroisoquinol-2-(1H)-yl)-acetamide hydrochloride] | significant reduction of cell viability | no significant effect on cell viability | significant reduction in cell viability | – | –
Cc1ccc(S(=O)(=O)Nc2ccc3c(c2)/C(=C/c2cnc[nH]2)C(=O)N3)cc1 [compound 9, N-[(3Z)-3-(1H-imidazol-5-ylmethylidene)-2-oxo-2,3-dihydro-1H-indol-5-yl]-4-methylbenzenesulfonamide] | – | – | – | inhibits cell viability, in a concentration-dependent way | ≥ 0.5
